Experimental data: patent US11571423B2, “Small molecule modulators of human sting” (Curadev Pharma Limited, priority 2017, dated 2023)
Structures can show the parent of a compound that is named as a salt.

Biological target: hSTING(R232) (Homo sapiens, UniProt Q86WV6, H232R)
Assay: Luciferase reporter assay in HEK293T-hSTING-Luciferase cells, R232 (wild type) human STING
Format: cell-based
Settings: 20 hr stimulation, read-out: R232 human activity (EC50 range)
Source text: Stable Cell Line Generation • a) Stable STING expressing cells—Stable HEK293T STING-expressing cell lines were generated using plasmids purchased from Invivogen, CA, USA, that contain STING cDNA cloned into the pUNO-1 vector under hEF1-HTLV promoter and containing the Blasticidin selection cassette. The plasmids hSTING(R232), hSTING(H232), hSTING(HAQ) were directly procured from Invivogen while hSTING (AQ) and hSTING (Q) were derived from hSTING(HAQ) and hSTING (R232) plasmids respectively by using a PCR based site directed mutagenesis method. These vectors were individually transfected into HEK293T cells using Lipofectamine (Invitrogen) and transfected cells were selected under Blasticidin selection. These transfected cells were further subjected to clonal selection using the limiting dilution method to obtain clonally pure populations of HEK cells transfected with each of the above mentioned human STING variants. Only those clones were selected in which ligand independent activation of STING was minimal. • b) Stable Luciferase reporter gene expressing cells—Stable HEK293T Luciferase reporter gene expressing cell lines were generated using pCDNA4 plasmids under an IRF-inducible promoter. This promoter is comprised of five tandem interferon-stimulated response elements (ISRE) fused to an ISG54 minimal promoter. This vector was transfected into HEK293T cells using Lipofectamine (Invitrogen) and transfected cells were selected under Zeocin selection. These transfected cells were further subjected to clonal selection using the limiting dilution method to obtain clonally pure populations of HEK cells transfected the Luciferase reporter construct. Only those clones were selected in which ligand independent induction of luciferase was minimal.
5×10^5 clonally selected HEK293T-hSTING-Luciferase cells were seeded in 384-well plates in growth medium and stimulated with novel compounds. After 20 hr of stimulation supernatant were removed and secretary reporter gene activity were measured using the Quanti-Luc detection system (Invivogen) on a Spectramax i3X luminometer.
In the tables below, EC50 value ranges for exemplary compounds are given.
All compounds were first tested in a primary screen to obtain a ‘fold-induction’ over baseline levels of protein activity.

Chain of hSTING(R232) (Q86WV6 whole entry H232R): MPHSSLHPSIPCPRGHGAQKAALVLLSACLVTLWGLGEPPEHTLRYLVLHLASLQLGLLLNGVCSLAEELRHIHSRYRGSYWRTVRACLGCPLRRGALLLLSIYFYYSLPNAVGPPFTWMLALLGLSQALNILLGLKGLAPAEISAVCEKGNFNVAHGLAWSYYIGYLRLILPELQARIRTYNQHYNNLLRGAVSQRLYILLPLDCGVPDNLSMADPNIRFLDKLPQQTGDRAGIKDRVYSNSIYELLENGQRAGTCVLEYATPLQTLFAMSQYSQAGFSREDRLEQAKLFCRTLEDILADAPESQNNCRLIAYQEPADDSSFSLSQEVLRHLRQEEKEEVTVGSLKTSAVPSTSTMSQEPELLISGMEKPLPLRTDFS

SMILES | EC50
CC1c2ccc(C(=O)NCc3c(F)cc(F)cc3F)cc2N(Cc2c(O)cccc2F)C(=O)N1C (stereo not shown) [Example 160, 1-(2-fluoro-6-hydroxybenzyl)-3,4-dimethyl-2-oxo-N-(2,4,6-trifluorobenzyl)-1,2,3,4-tetrahydroquinazoline-7-carboxamide] | < 1000 nM
C[C@@H]1c2ccc(C(=O)NCc3c(F)cc(F)cc3F)cc2N(Cc2c(F)cccc2Cl)C(=O)N1C (single isomer, unassigned) [Example 75] | 1000 to 10000 nM
CN1Cc2ccc(C(=O)NCc3c(F)cc(F)cc3F)cc2N(Cc2c(F)cccc2Cl)C1=O [Example 5, 1-(2-chloro-6-fluorobenzyl)-3-methyl-2-oxo-N-(2,4,6-trifluorobenzyl)-1,2,3,4-tetrahydroquinazoline-7-carboxamide] | < 1000 nM
COc1cc(F)ccc1CN1C(=O)N(C)Cc2ccc(C(=O)NCc3c(F)cc(F)cc3F)cc21 [Example 46, l-(4-fluoro-2-methoxybenzyl)-3-methyl-2-oxo-N-(2,4,6-trifluorobenzyl)-1,2,3,4-tetrahydroquinazoline-7-carboxamide] | 1000 to 10000 nM
CC1c2ccc(C(=O)NCc3c(F)cc(F)cc3F)cc2N(Cc2ccc(F)cc2)C(=O)N1C (stereo not shown) [Example 218, 1-(4-fluorobenzyl)-3,4-dimethyl-2-oxo-N-(2,4,6-trifluorobenzyl)-1,2,3,4-tetrahydroquinazoline-7-carboxamide] | < 1000 nM
CC1c2ccc(C(=O)NCc3c(F)cc(F)cc3F)cc2N(Cc2ccncc2F)C(=O)N1C (stereo not shown) [Example 211, 1-((3-fluoropyridin-4-yl)methyl)-3,4-dimethyl-2-oxo-N-(2,4,6-trifluorobenzyl)-1,2,3,4-tetrahydroquinazoline-7-carboxamide] | < 1000 nM
C[C@H]1c2ccc(C(=O)NCc3c(F)cc(F)cc3F)cc2N(Cc2c(F)cc(OCCN)cc2F)C(=O)N1C [Example 292, (S)-1-(4-(2-aminoethoxy)-2,6-difluorobenzyl)-3,4-dimethyl-2-oxo-N-(2,4,6-trifluorobenzyl)-1,2,3,4-tetrahydroquinazoline-7-carboxamide hydrochloride] | < 1000 nM
CC1c2ccc(C(=O)NCc3c(F)cc(F)cc3F)cc2N(Cc2ccccc2)C(=O)N1C (stereo not shown) [Example 190, 1-benzyl-3,4-dimethyl-2-oxo-N-(2,4,6-trifluorobenzyl)-1,2,3,4-tetrahydroquinazoline-7-carboxamide] | < 1000 nM
CC(=O)Nc1cccc(F)c1CN1C(=O)N(C)C(C)c2ccc(C(=O)NCc3c(F)cc(F)cc3F)cc21 (stereo not shown) [Example 226, 1-(2-acetamido-6-fluorobenzyl)-3,4-dimethyl-2-oxo-N-(2,4,6-trifluorobenzyl)-1,2,3,4-tetrahydroquinazoline-7-carboxamide] | 1000 to 10000 nM
CN1Cc2ccc(C(=O)NCc3ccc4cnn(C)c4c3)cc2N(Cc2c(F)cccc2Cl)C1=O [Example 51, 1-(2-chloro-6-fluorobenzyl)-3-methyl-N-((1-methyl-1H-indazol-6-yl)methyl)-2-oxo-1,2,3,4-tetrahydroquinazoline-7-carboxamide] | > 10000 nM
Cc1ccc(CNC(=O)c2ccc3c(c2)N(Cc2cc(F)cc(F)c2)C(=O)N(C)C3)o1 [Example 2, 1-(3,5-difluorobenzyl)-3-methyl-N-((5-methylfuran-2-yl)methyl)-2-oxo-1,2,3,4-tetrahydroquinazoline-7-carboxamide] | > 10000 nM
Cc1oc(-c2ccc(F)cc2)nc1CN1C(=O)N(C)Cc2ccc(C(=O)NCc3c(F)cc(F)cc3F)cc21 [Example 42, l-((2-(4-fluorophenyl)-5-methyloxazol-4-yl)methyl)-3-methyl-2-oxo-N-(2,4,6-trifluorobenzyl)-1,2,3,4-tetrahydroquinazoline-7-carboxamide] | 1000 to 10000 nM
O=C(NCc1c(F)cc(F)cc1F)c1ccc2c(c1)N(Cc1c(F)cccc1Cl)C(=O)N(O)C2 [Example 69, 1-(2-chloro-6-fluorobenzyl)-3-hydroxy-2-oxo-N-(2,4,6-trifluorobenzyl)-1,2,3,4-tetrahydroquinazoline-7-carboxamide] | > 10000 nM
C[C@H]1c2ccc(C(=O)NCc3ccc(F)cc3OP(=O)(O)O)cc2N(Cc2c(F)cccc2Cl)C(=O)N1C [Example 93, (S)-2-((1-(2-chloro-6-fluorobenzyl)-3,4-dimethyl-2-oxo-1,2,3,4-tetrahydroquinazoline-7-carboxamido)methyl)-5-fluorophenyl dihydrogen phosphate] | < 1000 nM
CC1c2ccc(C(=O)NCc3c(F)cc(F)cc3F)cc2N(Cc2c(F)cccc2Br)C(=O)N1C (stereo not shown) [Example 159, 1-(2-bromo-6-fluorobenzyl)-3,4-dimethyl-2-oxo-N-(2,4,6-trifluorobenzyl)-1,2,3,4-tetrahydroquinazoline-7-carboxamide] | < 1000 nM
C[C@H]1c2ccc(C(=O)NCc3c(F)cc(F)cc3F)cc2N(Cc2c(OCC(=O)O)ccc(F)c2F)C(=O)N1C [Example 244, (S)-2-(2-((3,4-dimethyl-2-oxo-7-((2,4,6-trifluorobenzyl)carbamoyl)-3,4-dihydroquinazolin-1(2H)-yl)methyl)-3,4-difluorophenoxy)acetic acid] | < 1000 nM
COc1cccc2cc(CNC(=O)c3ccc4c(c3)N(Cc3c(F)cccc3Cl)C(=O)N(C)C4)oc12 [Example 47, 1-(2-chloro-6-fluorobenzyl)-N-((7-methoxybenzofuran-2-yl)methyl)-3-methyl-2-oxo-1,2,3,4-tetrahydroquinazoline-7-carboxamide] | > 10000 nM
COc1cccc(CN2C(=O)N(C)[C@@H](C)c3ccc(C(=O)NCc4c(F)cc(F)cc4F)cc32)c1F [Example 279, (S)-1-(2-fluoro-3-methoxybenzyl)-3,4-dimethyl-2-oxo-N-(2,4,6-trifluorobenzyl)-1,2,3,4-tetrahydroquinazoline-7-carboxamide] | < 1000 nM
Cc1cccc(F)c1CN1C(=O)N(C)Cc2ccc(C(=O)NCc3c(F)cc(F)cc3F)cc21 [Example 9, 1-(2-fluoro-6-methylbenzyl)-3-methyl-2-oxo-N-(2,4,6-trifluorobenzyl)-1,2,3,4-tetrahydroquinazoline-7-carboxamide] | < 1000 nM
CN1Cc2ccc(C(=O)NCc3c(F)cc(F)cc3F)cc2N(Cc2cn3ccccc3n2)C1=O [Example 65, 1-(imidazo[1,2-a]pyridin-2-ylmethyl)-3-methyl-2-oxo-N-(2,4,6-trifluorobenzyl)-1,2,3,4-tetrahydroquinazoline-7-carboxamide] | > 10000 nM
C[C@H]1c2ccc(C(=O)NCc3c(F)cc(F)cc3F)cc2N(Cc2c(Cl)cn(C)c(=O)c2F)C(=O)N1C [Example 288, (S)-1-((5-chloro-3-fluoro-1-methyl-2-oxo-1,2-dihydropyridin-4-yl)methyl)3,4-dimethyl-2-oxo-N-(2,4,6-trifluorobenzyl)-1,2,3,4-tetrahydroquinazoline-7-carboxamide] | 1000 to 10000 nM
CN1Cc2ccc(C(=O)NCc3ccc(F)cc3F)cc2N(Cc2cc(F)cc(F)c2)C1=O [Example 4, N-(2,4-difluorobenzyl)-1-(3,5-difluorobenzyl)-3-methyl-2-oxo-1,2,3,4-tetrahydroquinazoline-7-carboxamide] | < 1000 nM
Cc1cc(CN2C(=O)N(C)C(C)c3ccc(C(=O)NCc4cc5cc(F)ccc5o4)cc32)n(C)n1 (stereo not shown) [Example 223, 1-((1,3-dimethyl-1H-pyrazol-5-yl)methyl)-N-((5-fluorobenzofuran-2-yl)methyl)-3,4-dimethyl-2-oxo-1,2,3,4-tetrahydroquinazoline-7-carboxamide] | 1000 to 10000 nM
COc1cccc(F)c1CNC(=O)c1ccc2c(c1)N(Cc1c(F)cccc1Cl)C(=O)N(C)C2 [Example 41, 1-(2-chloro-6-fluorobenzyl)-N-(2-fluoro-6-methoxybenzyl)-3-methyl-2-oxo-1,2,3,4-tetrahydroquinazoline-7-carboxamide] | > 10000 nM
CN1Cc2ccc(C(=O)NCc3c(F)cc(F)cc3F)cc2N(Cc2cc(F)cc(F)c2)C1=O [Example 1, 1-(3,5-difluorobenzyl)-3-methyl-2-oxo-N-(2,4,6-trifluorobenzyl)-1,2,3,4-tetrahydroquinazoline-7-carboxamide] | < 1000 nM
COc1cccc(F)c1CN1C(=O)N(C)Cc2ccc(C(=O)NCc3c(F)cc(F)cc3F)cc21 [Example 10, 1-(2-fluoro-6-methoxybenzyl)-3-methyl-2-oxo-N-(2,4,6-trifluorobenzyl)-1,2,3,4-tetrahydroquinazoline-7-carboxamide] | < 1000 nM
Cc1ccc(CN2C(=O)N(C)[C@@H](C)c3ccc(C(=O)NCc4c(F)cc(F)cc4F)cc32)c(F)c1 [Example 170, (S)-1-(2-fluoro-4-methylbenzyl)-3,4-dimethyl-2-oxo-N-(2,4,6-trifluorobenzyl)-1,2,3,4-tetrahydroquinazoline-7-carboxamide] | < 1000 nM
CC1c2ccc(C(=O)NCc3c(F)cc(F)cc3F)cc2N(Cc2c(F)cc(F)cc2OC(F)(F)F)C(=O)N1C (stereo not shown) [Example 210, 1-(2,4-difluoro-6-(trifluoromethoxy)benzyl)-3,4-dimethyl-2-oxo-N-(2,4,6-trifluorobenzyl)-1,2,3,4-tetrahydroquinazoline-7-carboxamide] | < 1000 nM
